Experimental data reported in patent publication US20260184715A1, “NOVEL PYRROLO[1,2-d][1,2,4] TRIAZINONE DERIVATIVES AS NEGATIVE ALLOSTERIC MODULATORS OF MGLU7 RECEPTORS” (Neurosterix Pharma Sarl., priority 2022, published 2026).

Target: T1, human metabotropic glutamate 7 receptor (hmGlu7) (Homo sapiens, UniProt Q14831)
T1 construct: expressed in transfected cells
Assay: mGlu7 assay on HEK-expressing human mGlu7: fluorescent cell based-Ca2+ mobilization assay (FLIPR), inhibition of EC80 L-AP4 response
Details: HEK-293 cells expressing hmGlu7, EC80 L-AP4; mean of at least three independent experiments in duplicate; read-out: Ca^2+ Flux (mean IC50)
From the text: mGlu7 Assay on HEK-Expressing Human mGLU7
The cDNA encoding the human metabotropic glutamate 7 receptor (hmGlu7), (accession number NM_181874.2, NCBI Nucleotide database browser), was subcloned into an expression vector containing also the hygromycin resistance gene. In parallel, the cDNA encoding a G protein allowing redirection of the activation signal to intracellular calcium flux was subcloned into a different expression vector containing also the Puromycin resistance gene. Transfection of both these vectors into HEK293 cells with PolyFect reagent (Qiagen) according to supplier's protocol, and hygromycin and puromycin treatment allowed selection of antibiotic resistant cells which had integrated stably one or more copies of the plasmids. Positive cellular clones expressing hmGlu7 were identified in a functional assay measuring changes in calcium fluxes in response to glutamate and L-AP4 or known mGlu7 orthosteric antagonists.
HEK-293 cells expressing hmGlu7 were maintained in media containing DMEM, Fetal Bovine Serum (10%), GlutaMAX™ (2 mM), penicillin (100 units/mL), streptomycin (100 μg/mL), geneticin (100 μg/mL) and hygromycin-B (40 μg/mL) and puromycin (1 μg/mL) at 37° C. with 5% CO2 in a humidified atmosphere.
Human mGlu7 HEK-293 cells were plated out 24 hours prior to a fluorescent cell-based calcium mobilization assay using FLIPR^384 assay (Molecular Device, Sunnyvale, CA, USA) in black-walled, clear-bottomed, poly-L-ornithine-coated 384-well plates at a density of 25,000 cells/well in a glutamine/glutamate free DMEM medium containing fetal bovine serum (10%), penicillin (100 units/mL), streptomycin (100 μg/mL) and doxycyline (1 μg/ml) at 37° C. with 5% CO2 in a humidified atmosphere.
On the day of the assay, the medium was aspirated and the cells were loaded with a 3 μM solution of Fluo4-AM (LuBioScience, Lucerne, Switzerland) in 0.03% pluronic acid. After 1 hour at 37° C./5% CO2, the non incorporated dye was removed by washing cell plate with the assay buffer. All assays were performed in a pH 7.4 buffered-Solution containing 20 mM HEPES, 143 mM NaCl, 6 mM KCl, 1 mM MgSO4, 1 mM CaCl2, 0.125 mM sulfinpyrazone and 0.1% glucose.
After 10 s of basal fluorescence recording, various concentrations of the compounds of the invention were added to the cells. Changes in fluorescence levels were first monitored for 180 s in order to detect any agonist activity of the compounds. Then the cells were stimulated by an EC80 L-AP4 concentration for an additional 110 s in order to measure inhibiting activities of the compounds of the invention. EC80 L-AP4 concentration is the concentration giving 80% of the maximal glutamate response.
The concentration-response curves of L-AP4 or representative compounds of the present invention were generated using the Prism GraphPad software (Graph Pad Inc, San Diego, USA). The curves were fitted to a four-parameter logistic equation:
(Y=Bottom+(Top−Bottom)/(1+10^((Log IC50−X)*Hill Slope)
allowing determination of IC50 values.
The Table 3 below represents the mean IC50 obtained from at least three independent experiments of selected molecules performed in duplicate.

T1 sequence (Q14831 35-922 isoform Q14831-2 limits assumed): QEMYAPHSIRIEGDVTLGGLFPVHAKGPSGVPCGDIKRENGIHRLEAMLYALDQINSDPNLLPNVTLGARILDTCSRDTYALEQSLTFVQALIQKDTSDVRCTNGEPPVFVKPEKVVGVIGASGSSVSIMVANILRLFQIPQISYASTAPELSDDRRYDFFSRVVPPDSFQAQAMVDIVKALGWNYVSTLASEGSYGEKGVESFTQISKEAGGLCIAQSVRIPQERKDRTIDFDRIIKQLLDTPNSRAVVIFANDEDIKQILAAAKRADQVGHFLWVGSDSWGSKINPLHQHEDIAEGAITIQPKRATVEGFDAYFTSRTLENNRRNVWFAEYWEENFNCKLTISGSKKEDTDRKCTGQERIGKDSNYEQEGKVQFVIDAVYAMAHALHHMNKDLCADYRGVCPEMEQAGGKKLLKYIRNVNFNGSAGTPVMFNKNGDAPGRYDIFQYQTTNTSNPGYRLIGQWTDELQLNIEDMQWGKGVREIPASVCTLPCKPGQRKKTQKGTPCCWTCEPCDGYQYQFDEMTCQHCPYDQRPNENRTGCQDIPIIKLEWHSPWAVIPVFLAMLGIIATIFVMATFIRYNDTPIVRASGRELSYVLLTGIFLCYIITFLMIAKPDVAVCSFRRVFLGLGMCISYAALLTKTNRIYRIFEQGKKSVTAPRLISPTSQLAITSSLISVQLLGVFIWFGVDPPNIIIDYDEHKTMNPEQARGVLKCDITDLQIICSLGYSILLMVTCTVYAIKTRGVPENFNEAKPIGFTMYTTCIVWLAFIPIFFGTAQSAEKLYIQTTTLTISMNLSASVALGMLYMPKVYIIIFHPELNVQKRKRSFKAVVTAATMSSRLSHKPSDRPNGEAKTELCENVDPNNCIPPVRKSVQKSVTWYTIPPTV

Row | SMILES | IC50 [nM]
1 | COc1ccc(-c2cc3cnn(-c4ccccn4)c(=O)n3c2C)cn1 [1-142] | 100 to 1000
2 | Cc1c(-c2cccc(N3CCC3)c2)c(C)n2c(=O)n(-c3ncccn3)ncc12 [1-23] | < 100
3 | Cc1c(-c2cccc3c2CCCN3C)c(C)n2c(=O)n(-c3ncccn3)ncc12 [1-86] | 100 to 1000
4 | Cc1c(-c2cccc(F)c2Cl)c(C)n2c(=O)n(-c3ncccn3)ncc12 [1-123] | < 100
5 | Cc1c(-c2cccc(N3CCC3)c2)c(C)n2c(=O)n(-c3ncc(F)cn3)ncc12 [1-15] | < 100
6 | COc1cnc(-n2ncc3c(C)c(-c4ccc(C)cc4C)c(C)n3c2=O)nc1 [1-46] | 100 to 1000
7 | Cc1c(-c2cccc3c2CCN3C(C)C)cc2cnn(-c3ncccn3)c(=O)n12 [1-68] | < 100
8 | CCn1ncc2c(C)c(-c3cccc(N4CCC4)c3)c(C)n2c1=O [1-10, 7-[3-(azetidin-1-yl)phenyl]-3-ethyl-6,8-dimethyl-pyrrolo[1,2-d][1,2,4]triazin-4-one] | 100 to 1000
9 | COc1cccc(-c2c(Br)c3cnn(-c4ccccn4)c(=O)n3c2C)c1F [1-115, 8-bromo-7-(2-fluoro-3-methoxy-phenyl)-6-methyl-3-(2-pyridyl)pyrrolo[1,2-d][1,2,4]triazin-4-one] | 100 to 1000
10 | COc1ccc(-c2c(C)c3cnn(-c4ccccn4)c(=O)n3c2C)c(F)c1 [1-136] | < 100
11 | Cc1c(-c2cccc(OC3CC3)c2)c(C)n2c(=O)n(-c3ncc(N4CCC(O)C4)cn3)ncc12 (stereo not drawn) [1-80] | 100 to 1000
12 | Cc1c(-c2cccc(OC3CC3)c2)c(C)n2c(=O)n(-c3ncc(Cl)cn3)ncc12 [1-48] | 100 to 1000
13 | COc1cccc(-c2c(C)c3cnn(-c4ncccn4)c(=O)n3c2C)c1C [1-95] | 100 to 1000
14 | Cc1c(-c2cccc(N3CCC3)c2)c(C)n2c(=O)n(Cc3ccccn3)ncc12 [1-9] | 100 to 1000
15 | Cc1c(-c2cccc3c2CCO3)cc2cnn(-c3ccccn3)c(=O)n12 [1-69] | < 100
16 | COc1cnc(-n2ncc3c(C)c(-c4cccc(OC(F)(F)F)c4)c(C)n3c2=O)nc1 [1-56] | 100 to 1000
17 | Cc1c(-c2cccc(N3CCC3)c2)c(C)n2c(=O)n(C3CC3)ncc12 [1-33] | 100 to 1000
18 | Cc1c(-c2cccc(OC3CC3)c2)c(C)n2c(=O)n(-c3ncccn3)ncc12 [1-29] | < 100
19 | Cc1c(-c2cccc(N3CCC3)c2)c(C)n2c(=O)n(-c3ccc(F)cn3)ncc12 [1-22] | < 100
20 | Cc1c(-c2cccc3c2CCN3C2CC2)cc2cnn(-c3ncccn3)c(=O)n12 [1-67] | 100 to 1000
21 | Cc1c(-c2cccc(OC3CC3)c2F)c(C)n2c(=O)n(-c3ncccn3)ncc12 [1-125] | 100 to 1000

Row | SMILES | IC50 [nM]
22 | Cc1c(-c2cccc3c2CCN3C(C)C)cc2cnn(-c3ccccn3)c(=O)n12 [1-66] | 100 to 1000
23 | Cc1c(-c2cccc(OC3CC3)c2)cc2cnn(-c3ncccn3)c(=O)n12 [1-88] | < 100
24 | CCn1ncc2c(C)c(-c3cccc4c3CCCN4C)c(C)n2c1=O [1-94] | 100 to 1000
25 | Cc1c(-c2cccc(OC3CC3)c2)c(C)n2c(=O)n(-c3ncccc3F)ncc12 [1-51] | 100 to 1000
26 | COc1cccc(-c2cc3cnn(-c4ncccn4)c(=O)n3c2C)c1C [1-76] | < 100
27 | COc1cccc(-c2cc3cnn(-c4ncccn4)c(=O)n3c2C)c1Cl [1-77] | < 100
28 | Cc1ccc(OC2CC2)cc1-c1c(C)c2cnn(-c3ncccn3)c(=O)n2c1C [1-93] | < 100
29 | COc1ccc(-c2c(C)c3cnn(-c4ncccn4)c(=O)n3c2C)c(C)c1 [1-134] | < 100
30 | Cc1c(-c2cccc3c2CCN3C)c(C)n2c(=O)n(-c3ncccn3)ncc12 [1-87] | 100 to 1000
31 | COc1cnc(-n2ncc3c(C)c(-c4cccc(N5CCC5)c4)c(C)n3c2=O)nc1 [1-25] | < 100
32 | COc1cc(-c2cc3cnn(-c4ncccn4)c(=O)n3c2C)ccc1F [1-111] | < 100
33 | Cc1c(-c2cccc3c2ccn3C2CC2)c(C)n2c(=O)n(-c3ncccn3)ncc12 [1-96] | < 100
34 | Cc1c(-c2ccnc3c2CCN3C)cc2cnn(-c3ccccn3)c(=O)n12 [1-118, 6-methyl-7-(1-methyl-2,3-dihydropyrrolo[2,3-b]pyridin-4-yl)-3-(2-pyridyl)pyrrolo[1,2-d][1,2,4]triazin-4-one] | < 100
35 | Cc1c(-c2cccc(OC(F)(F)F)c2)c(C)n2c(=O)n(-c3ncccn3)ncc12 [1-53, 6,8-dimethyl-3-pyrimidin-2-yl-7-[3-(trifluoromethoxy)phenyl]pyrrolo[1,2-d][1,2,4]triazin-4-one] | 100 to 1000
36 | Cc1c(-c2cccc(N3CCC3)c2)c(C)n2c(=O)n(-c3ccccn3)ncc12 [1-3, 7-[3-(azetidin-1-yl)phenyl]-6,8-dimethyl-3-(2-pyridyl)pyrrolo[1,2-d][1,2,4]triazin-4-one] | < 100
37 | Cc1c(-c2cccc(OC3CC3)c2)c(C)n2c(=O)n(-c3ncc(N)cn3)ncc12 [1-81] | 100 to 1000
38 | Cc1c(OC2CC2)cccc1-c1c(C)c2cnn(-c3ccc(C(C)(C)O)cn3)c(=O)n2c1C [1-59] | < 100
39 | Cc1c(-c2ccnc(OC(F)F)c2)c(C)n2c(=O)n(-c3ncccn3)ncc12 [1-141] | 1000 to 10000
40 | Cc1ccc(-c2c(C)c3cnn(-c4ncccn4)c(=O)n3c2C)c(C)c1 [1-79] | 1000 to 10000
41 | Cc1c(-c2cccc3c2CCN3C2CC2)c(C)n2c(=O)n(-c3ncccn3)ncc12 [1-99] | 100 to 1000
42 | Cc1c(-c2cc(F)cc(N3CCC3)c2)c(C)n2c(=O)n(-c3ccccn3)ncc12 [1-30] | < 100

Row | SMILES | IC50 [nM]
43 | Cc1c(-c2cccc(OC3CC3)c2)c(C)n2c(=O)n(-c3ccccn3)ncc12 [1-20] | < 100
44 | Cc1c(-c2ccnc3c2CCN3C)cc2cnn(-c3ncccn3)c(=O)n12 [1-119] | 100 to 1000
45 | Cc1c(-c2cccc3c2ccn3C)c(C)n2c(=O)n(-c3ncccn3)ncc12 [1-97] | 100 to 1000
46 | COc1nccc(-c2c(C)c3cnn(-c4ncccn4)c(=O)n3c2C)c1F [1-138] | 100 to 1000
47 | Cc1c(-c2cccc(N3CCC3)c2)c(C)n2c(=O)n(-c3ncc(OC(F)F)cn3)ncc12 [1-42] | < 100
48 | COc1ccc(-c2c(C)c3cnn(-c4ncccn4)c(=O)n3c2C)cc1 [1-122] | 100 to 1000
49 | Cc1c(-c2cccc(N3CCC3)c2)c(C)n2c(=O)n(-c3ccc(C(C)(C)O)cn3)ncc12 [1-24, 7-[3-(azetidin-1-yl)phenyl]-3-[5-(1-hydroxy-1-methyl-ethyl)-2-pyridyl]-6,8-dimethyl-pyrrolo[1,2-d][1,2,4]triazin-4-one] | < 100
50 | Cc1ccc(N2CCC2)cc1-c1c(C)c2cnn(-c3ccccn3)c(=O)n2c1C [1-16] | 100 to 1000
51 | COc1ccc(-c2c(C)c3cnn(-c4ccccn4)c(=O)n3c2C)cn1 [1-129] | < 100
52 | COc1cnc(-n2ncc3c(C)c(-c4cccc(OC(F)F)c4)c(C)n3c2=O)nc1 [1-57] | 100 to 1000
53 | Cc1c(-c2cccc(N3CCC3)c2)c(C)n2c(=O)n(-c3ccc(CCO)cn3)ncc12 [1-11] | 1000 to 10000
54 | COc1cccc(-c2cc3cnn(-c4ccccn4)c(=O)n3c2C)c1C [1-72] | < 100
55 | Cc1c(-c2cccc3c2CCCN3C)cc2cnn(-c3ncccn3)c(=O)n12 [1-89] | < 100
56 | Cc1c(-c2cccc(N3CCC3)c2)c(C)n2c(=O)n(-c3ccc(NC(=O)OC(C)(C)C)cn3)ncc12 [1-31] | 100 to 1000
57 | Cc1c(-c2cc3cnn(-c4ncccn4)c(=O)n3c2C)ccnc1OC1CC1 [1-145] | < 100
58 | COc1cc(F)cc(-c2cc3cnn(-c4ccccn4)c(=O)n3c2C)c1 [1-101] | 100 to 1000
59 | Cc1cnc(-n2ncc3c(C)c(-c4cccc(OC5CC5)c4)c(C)n3c2=O)nc1 [1-50] | 100 to 1000
60 | Cc1c(-c2cccc(N3CCC3)c2)c(C)n2c(=O)n(C3CCOCC3)ncc12 [1-5] | 100 to 1000
61 | Cc1c(OC2CC2)cccc1-c1cc2cnn(-c3ccccn3)c(=O)n2c1C [1-84] | 100 to 1000
62 | Cc1c(-c2cccc(OC(F)F)c2)cc2cnn(-c3ncccn3)c(=O)n12 [1-74] | < 100
63 | Cc1c(OC2CC2)cccc1-c1cc2cnn(-c3ncccn3)c(=O)n2c1 [1-18, 7-[3-(cyclopropoxy)-2-methyl-phenyl]-3-pyrimidin-2-yl-pyrrolo[1,2-d][1,2,4]triazin-4-one] | 100 to 1000
